In US10106526B2, “Inhibitors of cyclin-dependent kinase 7 (CDK7)” (SYROS PHARMACEUTICALS, INC., priority 2014, dated 2018):
Counter-ions that a name gives are not always drawn.

How the values were obtained:
CDK7 = biological target: T1, CDK7 (Homo sapiens, UniProt P50613); assay: CDK7 kinase activity, Adapta kinase assay (Life Technologies); assay type: biochemical; conditions: Adapta kinase assay at Life Technologies; 10 μM down to 0.514 nM, 3-fold serial dilutions; read-out: CDK7 Inhibition (IC50)
T1 construct: purchased Life Technologies (Adapta kinase assay service)
Description: Compounds of the invention were assayed for CDK7 activity at Life Technologies™ (Grand Island, N.Y.) using their commercially available Adapta® kinase assay services. Compounds were tested at concentrations ranging from 10 μM down to 0.514 nM in a series of 3-fold serial dilutions. Details of these assays, including substrates used, are available on the Life Technologies web site (http://www.lifetechnologies.com/us/en/home/life-science/drug-discovery/target-and-lead-identification-and-validation/kinasebiology/kinase-activity-assays.html).

Jurkat cells = assay: Inhibition of proliferation of Jurkat cells (CellTiter-Glo, 72 hour); assay type: cell-based, human; conditions: 10 μM to 316 pM
Description: Jurkat cells are a cell line established from a human T cell leukemia. Representative compounds of the invention were tested at different concentrations (from 10 μM to 316 pM; 0.5 log serial dilutions) for their ability to inhibit the proliferation of Jurkat cells. Known CDK inhibitors flavopiridol and triptolide were used as positive controls. Cells were grown in RPMI 1640+10% FBS+1% Glutamax. The cells were supplemented with FBS (Life Technologies) and 100 U·mL^− penicillin, 100 μg·mL^− streptomycin (Invitrogen) and cultured at 37° C. in a humidified chamber in the presence of 5% CO2. Proliferation assays were conducted over a 72 hour time period. CellTiter-Glo® (Promega Corporation, Madison, Wis. USA) was used to assess the anti-proliferative effects of the compounds following manufacturer's directions and utilizing the reagents supplied with the CellTiter-Glo® kit. In this table, “A” represents an IC50 of less than 500 nM; “B” an IC50 of between 500 nM and 5 μM; and “C” an IC50 of greater than 5 μM.

A673 cells = assay: Inhibition of proliferation of A673 cells (CyQUANT, 72 hour); assay type: cell-based, human; conditions: 72 hour proliferation
Description: A673 cells are a cell line derived from human muscle Ewing's sarcoma. Representative compounds of the invention were tested at different concentrations (from 4 μM to 126.4 pM; 0.5 log serial dilutions) for their ability to inhibit the proliferation of A673 cells. Known CDK inhibitors flavopiridol and triptolide were used as positive controls. Cells were grown in Dulbecco's Modified Eagle's Medium, +10% FBS+1 mM Sodium Pyruvate. The cells were cultured at 37° C. in a humidified chamber in the presence of 5% CO2. Proliferation assays were conducted over a 72 hour time period. CyQUANT® (Life Technologies, Chicago, Ill. USA) was used to assess the anti-proliferative effects of the compounds following manufacturer's directions and utilizing the reagents supplied with the CyQUANT® kit. In this table, “A” represents an IC50 of less than 500 nM; “B” an IC50 of between 500 nM and 5 μM; and “C” an IC50 of greater than 5 μM.

T1 sequence (P50613 whole entry): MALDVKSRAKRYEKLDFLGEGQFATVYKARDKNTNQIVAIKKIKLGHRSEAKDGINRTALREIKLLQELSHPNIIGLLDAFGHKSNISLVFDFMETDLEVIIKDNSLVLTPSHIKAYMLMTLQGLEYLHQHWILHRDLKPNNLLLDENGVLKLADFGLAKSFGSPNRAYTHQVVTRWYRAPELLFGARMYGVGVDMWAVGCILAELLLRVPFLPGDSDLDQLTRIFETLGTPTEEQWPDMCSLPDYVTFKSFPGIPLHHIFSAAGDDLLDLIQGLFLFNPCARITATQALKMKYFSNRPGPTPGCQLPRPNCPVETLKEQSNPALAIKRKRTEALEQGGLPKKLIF
T1 sequence (P51946 whole entry partner): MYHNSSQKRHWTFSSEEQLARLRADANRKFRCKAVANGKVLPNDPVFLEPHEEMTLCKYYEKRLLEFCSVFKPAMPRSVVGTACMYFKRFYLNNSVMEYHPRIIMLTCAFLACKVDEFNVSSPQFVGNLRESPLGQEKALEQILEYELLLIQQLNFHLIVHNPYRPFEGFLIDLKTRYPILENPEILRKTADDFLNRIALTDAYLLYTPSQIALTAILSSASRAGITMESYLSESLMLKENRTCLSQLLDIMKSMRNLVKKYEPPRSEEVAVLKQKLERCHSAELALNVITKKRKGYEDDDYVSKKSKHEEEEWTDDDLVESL
T1 sequence (P51948 whole entry partner): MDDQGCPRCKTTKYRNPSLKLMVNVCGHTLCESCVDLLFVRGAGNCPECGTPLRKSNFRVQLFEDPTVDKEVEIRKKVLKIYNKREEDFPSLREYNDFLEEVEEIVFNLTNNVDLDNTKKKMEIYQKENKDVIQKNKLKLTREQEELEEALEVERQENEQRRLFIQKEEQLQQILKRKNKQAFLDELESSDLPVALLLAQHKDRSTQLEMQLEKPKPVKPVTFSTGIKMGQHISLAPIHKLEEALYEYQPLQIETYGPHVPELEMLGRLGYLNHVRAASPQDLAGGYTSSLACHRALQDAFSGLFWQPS

| Compound | IC50 (CDK7) | IC50 (Jurkat cells; Homo sapiens) | IC50 (Jurkat cells) | IC50 (A673 cells; Homo sapiens) | IC50 (A673 cells) |
| --- | --- | --- | --- | --- | --- |
| C=CC(=O)N1CCCC(CN(C(=O)C=C)C2CCC(Nc3ncc(Cl)c(-c4c[nH]c5ccccc45)n3)CC2)C1 (centres unmarked) [Compound 191-1, N-[4-[[5-chloro-4-(1H-indol-3-yl)pyrimidin-2-yl]amino]cyclohexyl]-N-[(1-prop-2-enoyl-3-piperidyl)methyl]prop-2-enamide] | < 100 nM | < 500 nM | – | 500 to 5000 nM | – |
| C=CC(=O)NC12CC(C(=O)N[C@H]3CCC[C@@H](Nc4ncc(Cl)c(-c5c[nH]c6ccccc56)n4)C3)(C1)C2 (racemic) [Compound 109, N-[(±)-3-{[5-chloro-4-(1H-indol-3-yl)pyrimidin-2-yl]amino}cyclohexyl]-3-(prop-2-enamido)bicyclo[1.1.1]pentane-1-carboxamide] | > 1000 nM | < 500 nM | – | < 500 nM | – |
| C=CC(=O)N[C@@H]1CN[C@H](C(=O)N[C@H]2CCC[C@@H](Nc3ncc(Cl)c(-c4c[nH]c5ccccc45)n3)C2)C1 [Compound 153, (2S,4S)-4-acrylamido-N-((1S,3R)-3-(5-chloro-4-(1H-indol-3-yl)pyrimidin-2-ylamino)cyclohexyl)pyrrolidine-2-carboxamide] | < 100 nM | < 500 nM | – | < 500 nM | – |
| O=C(Nc1cccc(Nc2ncc(Cl)c(-c3c[nH]c4ccccc34)n2)c1)[C@H]1CCCNC1 [Compound 1005, (3S)—N-(3-(5-chloro-4-(1H-indol-3-yl)pyrimidin-2-ylamino)phenyl)piperidine-3-carboxamide] | < 100 nM | 500 to 5000 nM | – | – | – |
| C=CC(=O)N1CCC(CNC2CCC(Nc3ncc(Cl)c(-c4c[nH]c5ccccc45)n3)CC2)CC1 (centres unmarked) [compound 184] | 100 to 1000 nM | – | > 5000 nM | – | > 5000 nM |
| C=CC(=O)N1CCN([C@@H]2CCC[C@@H](Nc3ncc(Cl)c(-c4c[nH]c5ccccc45)n3)C2)CC1 [Compound 180] | 100 to 1000 nM | – | < 500 nM | – | < 500 nM |
| C=CC(=O)NCCC(=O)N[C@H]1CCC[C@@H](Nc2ncc(Cl)c(-c3c[nH]c4ccccc34)n2)C1 [Compound 172, N-(3-((1S,3R)-3-(5-chloro-4-(1H-indol-3-yl)pyrimidin-2-ylamino)cyclohexylamino)-3-oxopropyl)acrylamide] | < 100 nM | < 500 nM | – | – | – |
| C=CC(=O)N1CCC(CNC2CCC(Nc3ncc(Cl)c(-c4c[nH]c5ccccc45)n3)CC2)CC1 (centres unmarked) [compound 163] | < 100 nM | – | < 500 nM | – | < 500 nM |
| O=C(N[C@@H]1CCC[C@H](Nc2ncc(Cl)c(-c3c[nH]c4ccccc34)n2)C1)C1CCN(C(=O)/C=C/CN2CCOCC2)CC1 [Compound 202-2, N-((1R,3S)-3-((5-chloro-4-(1H-indol-3-yl)pyrimidin-2-yl)amino)cyclohexyl)-1-((E)-4-morpholinobut-2-enoyl)piperidine-4-carboxamide] | < 100 nM | < 500 nM | – | – | – |
| O=C(Nc1cccc(Nc2ncc(Cl)c(-c3c[nH]c4ccccc34)n2)c1)C1CCCNC1 (centres unmarked) [compound 1003] | < 100 nM | – | 500 to 5000 nM | – | – |
| C=CC(=O)N1CCCC(CN[C@H]2CC[C@@H](Nc3ncc(Cl)c(-c4c[nH]c5ccccc45)n3)CC2)C1 (single isomer, unassigned) [compound 195] | 100 to 1000 nM | – | < 500 nM | – | – |
| Nc1ccc(C(=O)N[C@H]2CCC[C@@H](Nc3ncc(Cl)c(-c4c[nH]c5ccccc45)n3)C2)nc1 [Compound 1007, 5-amino-N-((1S,3R)-3-(5-chloro-4-(1H-indol-3-yl)pyrimidin-2-ylamino)cyclohexyl)picolinamide] | < 100 nM | 500 to 5000 nM | – | – | – |
| C=CC(=O)N1CCN(C(=O)N[C@H]2CCC[C@@H](Nc3ncc(Cl)c(-c4c[nH]c5ccccc45)n3)C2)CC1 [Compound 201, 4-Acryloyl-N-((1S,3R)-3-(5-chloro-4-(1H-indol-3-yl)pyrimidin-2-ylamino)cyclohexyl)piperazine-1-carboxamide] | < 100 nM | 500 to 5000 nM | – | – | – |
| CN(C)C/C=C/C(=O)Nc1ccc(C(=O)Nc2cccc(Nc3ncc(Cl)c(-c4c[nH]c5ccccc45)n3)c2)nc1 [Compound 107, (E)-N-(3-(5-chloro-4-(1H-indol-3-yl)pyrimidin-2-ylamino)phenyl)-5-(4-(dimethylamino)but-2-enamido)picolinamide] | < 100 nM | 500 to 5000 nM | – | – | – |
| N[C@H]1CC[C@H](C(=O)Nc2cccc(Nc3ncc(Cl)c(-c4c[nH]c5ccccc45)n3)c2)CC1 [Compound 1002, trans-4-amino-N-(3-(5-chloro-4-(1H-indol-3-yl)pyrimidin-2-ylamino)phenyl) cyclohexanecarboxamide.HCl] | < 100 nM | 500 to 5000 nM | – | – | – |

Now from value to compound, other results behind:

| IC50 (CDK7) | IC50 (Jurkat cells; Homo sapiens) | IC50 (Jurkat cells) | Compound | IC50 (A673 cells; Homo sapiens) | IC50 (A673 cells) |
| --- | --- | --- | --- | --- | --- |
| 100 to 1000 nM | > 5000 nM | – | C=CC(=O)N1CCC(C(=O)N2CC[C@@H](Nc3ncc(Cl)c(-c4c[nH]c5ccccc45)n3)C2)CC1 [Compound 214, 1-[4-[(3R)-3-[[5-chloro-4-(1H-indol-3-yl)pyrimidin-2-yl]amino]pyrrolidine-1-carbonyl]-1-piperidyl]prop-2-en-1-One] | < 500 nM | – |
| 100 to 1000 nM | – | 500 to 5000 nM | C=CC(=O)N1CCC(NC(=O)N2CCC[C@@H](Nc3ncc(Cl)c(-c4c[nH]c5ccccc45)n3)C2)CC1 [Compound 205] | – | < 500 nM |
| < 100 nM | – | 500 to 5000 nM | CN(C)C/C=C/C(=O)N1CC[C@@H](Nc2ncc(Cl)c(-c3c[nH]c4ccccc34)n2)C1 [Compound 176] | – | – |
| 100 to 1000 nM | – | < 500 nM | CN(C)CC=CC(=O)N1CCCC(CNC2CCC(Nc3ncc(Cl)c(-c4c[nH]c5ccccc45)n3)CC2)C1 (racemic) [compound 194] | – | – |
| < 100 nM | 500 to 5000 nM | – | CN(C)C/C=C/C(=O)N1CCC(C(=O)Nc2cccc(Nc3ncc(Cl)c(-c4c[nH]c5ccccc45)n3)c2)CC1 [Compound 105, (E)-N-(3-(5-chloro-4-(1H-indol-3-yl)pyrimidin-2-ylamino)phenyl)-1-(4-(dimethylamino)but-2-enoyl)piperidine-4-carboxamide] | – | – |
| < 100 nM | 500 to 5000 nM | – | CN(C)C/C=C/C(=O)NCCCCC(=O)N1CC[C@@H](Nc2ncc(Cl)c(-c3c[nH]c4ccccc34)n2)C1 [Compound 100, (E)-N-(5-((R)-3-(5-chloro-4-(1H-indol-3-yl)pyrimidin-2-ylamino)pyrrolidin-1-yl)-5-oxopentyl)-4-(dimethylamino)but-2-enamide] | – | – |
| 100 to 1000 nM | 500 to 5000 nM | – | C=CC(=O)N1CCC(C(=O)N2CC[C@H](Nc3ncc(Cl)c(-c4c[nH]c5ccccc45)n3)C2)CC1 [Compound 210, (S)-1-(4-(3-((5-chloro-4-(1H-indol-3-yl)pyrimidin-2-yl)amino)pyrrolidine-1-carbonyl)piperidin-1-yl)prop-2-en-1-One] | – | – |
| < 100 nM | 500 to 5000 nM | – | CN(C)C/C=C/C(=O)N1CCC[C@@H](C(=O)Nc2cccc(Nc3ncc(Cl)c(-c4c[nH]c5ccccc45)n3)c2)C1 [Compound 103, (3R,E)-N-(3-(5-chloro-4-(1H-indol-3-yl)pyrimidin-2-ylamino)phenyl)-1-(4-(dimethylamino)but-2-enoyl)piperidine-3-carboxamide] | – | – |
| < 100 nM | 500 to 5000 nM | – | NCCCCC(=O)N1CC[C@@H](Nc2ncc(Cl)c(-c3c[nH]c4ccccc34)n2)C1 [Compound 1000, 5-((R)-3-(5-chloro-4-(1H-indol-3-yl)pyrimidin-2-ylamino)pyrrolidin-1-yl)-5-oxopentan-1-aminium chloride] | – | – |
